Here are results for 4 molecules from paper PMC11876601 (Molecular Systems Biology, 2025).

In one test the test system is PLK1. Further details: method as in Reinecke et al. (2023). To be noted: PLK1, 5 cell line mix lysate, Kinobeads ε, ref Reinecke et al. (2023), cited from earlier work.
The subject of the next test is TAOK1. More on the design: method as in Reinecke et al. (2023). The following applies: TAOK1, 5 cell line mix lysate, Kinobeads ε, ref Reinecke et al. (2023), cited from earlier work.
A further test concerns CSNK2A1;CSNK2A3. The following applies: CSNK2A1;CSNK2A3, 5 cell line mix lysate, Kinobeads ε, ref Reinecke et al. (2023), cited from earlier work.
A further test deals with PTK2. More on the design: method as in Reinecke et al. (2023). To be noted: PTK2, 5 cell line mix lysate, Kinobeads ε, ref Reinecke et al. (2023), cited from earlier work.
In the next test the test system is MAP3K12. Further details: method as in Reinecke et al. (2023). To be noted: MAP3K12, 5 cell line mix lysate, Kinobeads ε, ref Reinecke et al. (2023), cited from earlier work.
A further test deals with TANK. To be noted: 5 cell line mix lysate, Kinobeads ε, ref Reinecke et al. (2023), cited from earlier work.
The subject of another test is SIK3. More on the design: method as in Reinecke et al. (2023). The following applies: SIK3, 5 cell line mix lysate, Kinobeads ε, ref Reinecke et al. (2023), cited from earlier work.
In a further test the target is HCK. Further details: method as in Reinecke et al. (2023). To be noted: 5 cell line mix lysate, Kinobeads ε, ref Reinecke et al. (2023), cited from earlier work.
Another test addresses PDGFRB. More on the design: method as in Reinecke et al. (2023). The following applies: 5 cell line mix lysate, Kinobeads ε, ref Reinecke et al. (2023), cited from earlier work.
The target of the next test is CAMK2B. More on the design: method as in Reinecke et al. (2023). To be noted: 5 cell line mix lysate, Kinobeads ε, ref Reinecke et al. (2023), cited from earlier work.
For another test, the system named is PTK6. More on the design: method as in Reinecke et al. (2023). The following applies: PTK6, 5 cell line mix lysate, Kinobeads ε, ref Reinecke et al. (2023), cited from earlier work.
The test system of the next test is IRAK3. To be noted: IRAK3, 5 cell line mix lysate, Kinobeads ε, ref Reinecke et al. (2023), cited from earlier work.
Another test has as its system FGFR3;FGFR4. More on the design: method as in Reinecke et al. (2023). The following applies: FGFR3;FGFR4, 5 cell line mix lysate, Kinobeads ε, ref Reinecke et al. (2023), cited from earlier work.
For the next test, the system named is INCENP. More on the design: method as in Klaeger et al. (2017). To be noted: lysate 4 cell line mix (Colo205, K-562, MV-4-11, and SK-N-BE(2)), Kinobeads y, ref Klaeger et al. (2017); cited from earlier work.
Another test relates to STK4. More on the design: method as in Klaeger et al. (2017). The following applies: STK4, 4 cell line mix lysate, Kinobeads y, ref Klaeger et al. (2017); cited from earlier work.
The target in test [1] is several subunits of CSNK2. Description: Kinobeads competition pulldown in AsPC-1 lysate. It is filed as binding, human. To be noted: read-out: KDapp. The procedure: (§1) This was followed by incubation with Kinobeads ε (17.5 µl of settled beads) for 30 min at 4 °C to enrich kinases. […] Enriched proteins were reduced with 50 mM DTT in 8 M urea, 40 mM Tris-HCl, pH 7.4 for 30 min at room temperature, and alkylated with 55 mM chloroacetamide. After reducing the urea concentration to 1–2 M, proteins were digested with trypsin at 37 °C for 16 h. Subsequently, eluted peptides were desalted using SepPak tC18 µElution plates (Waters), freeze-dried by vacuum centrifugation, and stored at −20 °C.
(§2) For LC-MS/MS, dried peptides were reconstituted in 0.1% formic acid and analyzed on a Dionex Ultimate3000 nano HPLC (Thermo Scientific) coupled to an Orbitrap Fusion Tribrid mass spectrometer (Thermo Scientific), which was run in data-dependent mode. […]
(§3) Oxidized methionine and N-terminal acetylation were set as variable modification, and cysteine carbamidomethylation was set as fixed modification. Label-free quantification (LFQ) and match-between-runs were enabled. […]
(§4) Proteins were filtered by potential contaminants, reversed hits and proteins identified only by site. Residual binding of proteins was calculated from LFQ intensities as the ratio between drug doses and vehicle. […] Only kinases quantified with at least 4 unique peptides in the vehicle experiment were considered. […]

In a further test the target is PIK3C2A (Homo sapiens, UniProt O00443). Description: biochemical. Here is the method: as §1, §2, §3, §4
Sequence of PIK3C2A (O00443 whole entry): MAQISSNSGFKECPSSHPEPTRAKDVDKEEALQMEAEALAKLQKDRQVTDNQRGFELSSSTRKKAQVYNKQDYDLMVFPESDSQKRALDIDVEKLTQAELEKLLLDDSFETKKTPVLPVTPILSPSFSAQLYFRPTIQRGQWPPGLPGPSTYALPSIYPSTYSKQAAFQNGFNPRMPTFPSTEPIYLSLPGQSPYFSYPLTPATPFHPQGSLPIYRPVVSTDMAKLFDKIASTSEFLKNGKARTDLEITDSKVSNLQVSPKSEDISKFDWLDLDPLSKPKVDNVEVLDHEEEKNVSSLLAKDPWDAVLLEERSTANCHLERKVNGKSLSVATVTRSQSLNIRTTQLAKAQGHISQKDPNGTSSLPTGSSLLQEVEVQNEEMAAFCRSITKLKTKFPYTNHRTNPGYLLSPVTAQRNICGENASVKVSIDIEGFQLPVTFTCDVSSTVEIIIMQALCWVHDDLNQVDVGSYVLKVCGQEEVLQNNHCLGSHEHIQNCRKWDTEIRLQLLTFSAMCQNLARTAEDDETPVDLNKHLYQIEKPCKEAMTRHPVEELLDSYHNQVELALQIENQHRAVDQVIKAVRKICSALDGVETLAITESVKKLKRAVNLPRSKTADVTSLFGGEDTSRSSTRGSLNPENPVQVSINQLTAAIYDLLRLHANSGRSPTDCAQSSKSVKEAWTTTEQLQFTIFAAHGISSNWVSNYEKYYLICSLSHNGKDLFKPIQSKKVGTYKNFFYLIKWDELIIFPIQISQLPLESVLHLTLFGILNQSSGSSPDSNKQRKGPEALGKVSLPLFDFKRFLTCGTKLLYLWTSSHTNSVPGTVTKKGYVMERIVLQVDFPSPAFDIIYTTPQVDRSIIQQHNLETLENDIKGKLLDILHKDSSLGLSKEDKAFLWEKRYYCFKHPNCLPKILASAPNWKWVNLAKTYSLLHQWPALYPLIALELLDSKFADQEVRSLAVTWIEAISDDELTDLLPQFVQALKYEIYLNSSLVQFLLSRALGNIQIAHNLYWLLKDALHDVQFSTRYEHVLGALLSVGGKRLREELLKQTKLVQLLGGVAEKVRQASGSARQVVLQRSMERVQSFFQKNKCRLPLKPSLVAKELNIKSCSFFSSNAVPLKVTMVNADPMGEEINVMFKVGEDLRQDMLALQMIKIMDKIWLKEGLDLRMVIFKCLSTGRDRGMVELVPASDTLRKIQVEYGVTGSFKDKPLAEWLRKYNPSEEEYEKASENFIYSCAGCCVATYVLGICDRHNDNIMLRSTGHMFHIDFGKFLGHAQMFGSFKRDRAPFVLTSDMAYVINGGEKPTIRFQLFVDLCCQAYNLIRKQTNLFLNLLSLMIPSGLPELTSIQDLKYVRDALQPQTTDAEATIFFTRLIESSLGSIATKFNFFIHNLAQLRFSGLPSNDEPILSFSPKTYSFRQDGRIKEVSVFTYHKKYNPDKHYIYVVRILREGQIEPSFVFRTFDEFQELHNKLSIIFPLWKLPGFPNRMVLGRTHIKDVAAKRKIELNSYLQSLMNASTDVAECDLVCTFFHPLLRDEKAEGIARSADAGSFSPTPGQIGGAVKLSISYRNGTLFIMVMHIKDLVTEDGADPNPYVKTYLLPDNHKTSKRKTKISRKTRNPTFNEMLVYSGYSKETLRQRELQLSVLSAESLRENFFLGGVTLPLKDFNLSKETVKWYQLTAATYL

As a reminder, the EC50 is the concentration needed to bring the measured effect to its halfway point. With `COc1cc(N2CCC(N3CCN(C)CC3)CC2)ccc1Nc1ncc(Cl)c(Nc2ccccc2P(C)(C)=O)n1` [Brigatinib], the EC50 in the test on PLK1 is 1100 nM; in the test with TAOK1, 847 nM; in the test with CSNK2A1;CSNK2A3, 331 nM; in the test on PTK2, 12.6 nM; with MAP3K12, 1040 nM; with TANK it was 1070 nM. Also, the EC50 was 1770 nM in the test on SIK3; 1500 nM in the test on HCK; 843 nM in the test with PDGFRB; 323 nM in the test on CAMK2B; 85.9 nM with PTK6; 1150 nM with IRAK3. Moreover, the EC50 in the test on FGFR3;FGFR4 was 617 nM. Moreover, the pKDapp on PLK1 is on record as 5.99; on TAOK1, 6.25; on CSNK2A1;CSNK2A3, 6.48; at PTK2, 8.29; at MAP3K12 it was 6.25; at TANK it was 6.17. Also, the pKDapp at SIK3 is given as 5.84; on HCK it was 6.11; on PDGFRB it was 6.13; at CAMK2B, 7.32; on PTK6, 7.38; at IRAK3, 6.31. At FGFR3;FGFR4, the pKDapp is reported as 6.21. The Kd on PLK1 (read-out: KDapp) is 1010 nM; at TAOK1 (read-out: KDapp), 563 nM; at CSNK2A1;CSNK2A3 (read-out: KDapp), 331 nM; at PTK2 (read-out: KDapp), 5.15 nM; at MAP3K12 (read-out: KDapp), 563 nM; at TANK (read-out: KDapp) it was 684 nM. Moreover, the Kd on SIK3 (read-out: KDapp) was 1450 nM; at HCK (read-out: KDapp) it was 776 nM; on PDGFRB (read-out: KDapp), 737 nM; at CAMK2B (read-out: KDapp) it was 48.4 nM; at PTK6 (read-out: KDapp), 41.5 nM; at IRAK3 (read-out: KDapp) it was 494 nM. Moreover, the Kd at FGFR3;FGFR4 (read-out: KDapp) is 617 nM.
For `C[C@]12O[C@H](C[C@]1(O)CO)n1c3ccccc3c3c4c(c5c6ccccc6n2c5c31)CNC4=O` [Lestaurtinib], the EC50 with INCENP was 520 nM; in the test with STK4, 59.4 nM.
For the molecule `Nc1nn2cc(F)cnc2c1C(=O)Nc1cncc(F)c1N1CCC(C(=O)N2CCN(C3COC3)CC2)CC1` [Gartisertib], the Kd in [1] was 10 to 20 nM.
The molecule `C[C@@H]1COCCN1c1cc(-c2ccnn2C)c2ccnc(-c3ccn[nH]3)c2n1` [Elimusertib] showed an EC50 at PIK3C2A of 936 nM. Also, on PIK3C2A (KDapp, AsPC-1 lysate), the Kd amounted to 426 nM.
